{
  "source": "PubChem BioAssay AID1845216",
  "about": "(Molecular Pharmacology Branch, DTP, NCI, 2023)",
  "system": "SW 982 tumor spheroid viability",
  "assay": "Anticancer human tumor SW 982 cell line growth inhibition;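 further: spheroids exposed to compound for 7 days before readout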",
  "settings": "spheroids with HUVEC and MSC; for viability, T/C: stronger effect = lower value",
  "source_text": "Multicellular complex tumor spheroid response to DNA repair inhibitors in combination with DNA-damaging drugs\nThis study explores the anticancer activities of DNA-damaging drugs and inhibitors of DNA damage repair, both as single agents and in combinations. Complex tumor spheroids comprised of malignant cells, endothelial cells and mesenchymal stem cells served as an in vitro model for human solid tumors. This model system incorporates physiologically relevant features and patient-derived or established malignant cell lines with clinically relevant genetic alterations from many tumor types. Twenty-six patient-derived or established malignant cell lines were evaluated representing sarcoma, melanoma, small cell lung cancer (SCLC), non-small cell lung cancer (NSCLC), as well as bladder, ovarian and pancreatic cancers. The concentration ranges selected for each drug and investigational agent were based upon clinically achievable concentrations if the clinical Cmax of the agent was known.\nCompounds. The drugs and compounds olaparib (NSC753686), talazoparib (NSC767125), berzosertib (NSC777718), elimusertib (NSC800525), nedisertib (NSC802822), VX-984 (NSC792969), AZD-1390 (NSC803789), temozolomide (NSC362856), topotecan (NSC609699), trabectedin (NSC813783), staurosporine (NSC755774), and gemcitabine (NSC613327) were obtained from the National Cancer Institute (NCI) Developmental Therapeutics Program Chemical Repository. The FDA-approved anticancer drug set is available from the Developmental Therapeutics Program at https://dtp.cancer.gov/organization/dscb/obtaining/available_plates.htm. […] The stock solutions were prepared in dimethyl sulfoxide (DMSO, Sigma-Aldrich, St. Louis, MO, cat. D2650) at 400-fold the tested concentration and stored at -70 degrees C. Prior to their use, the stock solutions were diluted in fresh medium and the final DMSO concentration in the assay was 0.25% (v/v). All drugs and investigational agents were tested over a range starting from a high concentration at or near the clinical Cmax and decreasing in half-log increments. If the clinical Cmax for an agent had not been determined, the highest concentration tested was 10 microM.\nCell Lines. The patient-derived cancer cell (PDC) lines: 156681-154-R-J1-PDC, 283228-195-R-J1-PDC, 287954-098-R-J1-PDC, 292921-168-R-J2-PDC, 349418-098-R-PDC, 425362-245-T-J1-PDC, 556581-035-R-J1-PDC, and BL0293-F563-PDC were received from the NCI Patient-Derived Models Repository (PDMR, https://pdmr.cancer.gov). The established cell lines HS-SY-2 (RRID:CVCL_8719), MPNST, and SYO-1 (RRID:CVCL_7146) were obtained from the Sloan Kettering Institute. The alveolar soft parts sarcoma cell line ASPS-1 (RRID:CVCL_S738) was established at the NCI and grown from internal seed stocks. The following established cell lines were purchased from the American Type Culture Collection (ATCC, Manassas, VA): G-401 (ATCC, cat. CRL-1441, RRID:CVCL_0270), SW982 (ATCC, cat. HTB-93, RRID:CVCL_1734), VA-ES-BJ (ATCC, cat. CRL-2138, RRID:CVCL_1785), NCI-H719 (ATCC, cat. CRL-5837, RRID:CVCL_1582), NCI-H196 (ATCC, cat. CRL-5823, RRID:CVCL_1509), NCI-H841 (ATCC, cat. CRL-5845, RRID:CVCL_1595), NCI-H1618 (ATCC, cat. CRL-5879, RRID:CVCL_1480), NCI-H1876 (ATCC, cat. CRL-5902, RRID:CVCL_1503), DMS 114 (ATCC, cat. CRL-2066; RRID:CVCL_1174), NCI-H211 (ATCC, cat. CRL-5824; RRID:CVCL_1529), and SW 1271 (ATCC, cat. CRL-2177, RRID:CVCL_1716). The small cell lung cancer cell line COR-L88 was purchased from Sigma-Aldrich (cat. 92031917-1VL, RRID:CVCL_1141). The non-small cell lung cancer cell lines NCI-H226 (RRID:CVCL_1544) and NCI-H322M (RRID:CVCL_1557) were established at the NCI and grown from internal seed stocks. Pooled donor human umbilical vein endothelial cells (HUVEC, Lonza, cat. CC-2519) and human mesenchymal stem cells (hMSC, Lonza, cat. PT-2501) were purchased from Lonza (Walkersville, MD).\nCell Culture. All cells were maintained in an incubator at 37 degrees C and 5% CO2 with 95% humidity. […]",
  "data": [
    {"compound": "Cn1nnc2c(C(N)=O)ncn2c1=O", "values": [
      {"measurement": "viability, T/C", "setting": "compound 1 µM", "value": "96.1% [middle of 10 runs]"},
      {"measurement": "viability, T/C", "setting": "compound 3.16 µM", "value": "90.9% [middle of 10 runs]"},
      {"measurement": "viability, T/C", "setting": "compound 10 µM", "value": "79.1% [middle of 10 runs]"},
      {"measurement": "viability, T/C", "setting": "compound 31.6 µM", "value": "69.1% [middle of 10 runs]"},
      {"measurement": "viability, T/C", "setting": "compound 100 µM", "value": "57.1% [middle of 10 runs]"},
      {"measurement": "IC50", "setting": "compound alone, run of 12/02/2019", "value": "> 100", "unit": "µM"}
    ]},
    {"compound": "Cc1cc(C)c(CNC(=O)c2cc(-c3ccc(CN4CCOCC4)cc3)cc3c2cnn3C2CCCC2)c(=O)[nH]1", "note": "+ CC[C@@]1(O)C(=O)OCc2c1cc1n(c2=O)Cc2cc3c(CN(C)C)c(O)ccc3nc2-1", "values": [
      {"measurement": "IC50", "setting": "curve of first compound, second compound 0.003 µM", "value": "> 10", "unit": "µM"},
      {"measurement": "IC50", "setting": "curve of first compound, second compound 0.00949 µM", "value": "> 10", "unit": "µM"},
      {"measurement": "IC50", "setting": "curve of first compound, second compound 0.03 µM", "value": "> 10", "unit": "µM"},
      {"measurement": "IC50", "setting": "curve of first compound, second compound 0.0949 µM", "value": "> 10", "unit": "µM"},
      {"measurement": "IC50", "setting": "curve of first compound, second compound 0.3 µM", "value": 3.03, "unit": "µM"},
      {"measurement": "viability, T/C", "setting": "second compound 0.003 µM, first compound 0.0316 µM", "value": 96.8, "unit": "%"},
      {"measurement": "viability, T/C", "setting": "second compound 0.003 µM, first compound 0.1 µM", "value": 102, "unit": "%"},
      {"measurement": "viability, T/C", "setting": "second compound 0.003 µM, first compound 0.316 µM", "value": 103, "unit": "%"},
      {"measurement": "viability, T/C", "setting": "second compound 0.003 µM, first compound 1 µM", "value": 90.4, "unit": "%"},
      {"measurement": "viability, T/C", "setting": "second compound 0.003 µM, first compound 3.16 µM", "value": 85.9, "unit": "%"},
      {"measurement": "viability, T/C", "setting": "second compound 0.003 µM, first compound 10 µM", "value": 61.6, "unit": "%"},
      {"measurement": "viability, T/C", "setting": "second compound 0.00949 µM, first compound 0.0316 µM", "value": 96.1, "unit": "%"},
      {"measurement": "viability, T/C", "setting": "second compound 0.00949 µM, first compound 0.1 µM", "value": 86.6, "unit": "%"},
      {"measurement": "viability, T/C", "setting": "second compound 0.00949 µM, first compound 0.316 µM", "value": 86.5, "unit": "%"},
      {"measurement": "viability, T/C", "setting": "second compound 0.00949 µM, first compound 1 µM", "value": 85, "unit": "%"},
      {"measurement": "viability, T/C", "setting": "second compound 0.00949 µM, first compound 3.16 µM", "value": 83, "unit": "%"},
      {"measurement": "viability, T/C", "setting": "second compound 0.00949 µM, first compound 10 µM", "value": 63.3, "unit": "%"},
      {"measurement": "viability, T/C", "setting": "second compound 0.03 µM, first compound 0.0316 µM", "value": 97, "unit": "%"},
      {"measurement": "viability, T/C", "setting": "second compound 0.03 µM, first compound 0.1 µM", "value": 88.7, "unit": "%"},
      {"measurement": "viability, T/C", "setting": "second compound 0.03 µM, first compound 0.316 µM", "value": 101, "unit": "%"},
      {"measurement": "viability, T/C", "setting": "second compound 0.03 µM, first compound 1 µM", "value": 83.4, "unit": "%"},
      {"measurement": "viability, T/C", "setting": "second compound 0.03 µM, first compound 3.16 µM", "value": 86.2, "unit": "%"},
      {"measurement": "viability, T/C", "setting": "second compound 0.03 µM, first compound 10 µM", "value": 62.9, "unit": "%"},
      {"measurement": "viability, T/C", "setting": "second compound 0.0949 µM, first compound 0.0316 µM", "value": 87.7, "unit": "%"},
      {"measurement": "viability, T/C", "setting": "second compound 0.0949 µM, first compound 0.1 µM", "value": 87.4, "unit": "%"},
      {"measurement": "viability, T/C", "setting": "second compound 0.0949 µM, first compound 0.316 µM", "value": 85.2, "unit": "%"},
      {"measurement": "viability, T/C", "setting": "second compound 0.0949 µM, first compound 1 µM", "value": 89.6, "unit": "%"},
      {"measurement": "viability, T/C", "setting": "second compound 0.0949 µM, first compound 3.16 µM", "value": 75.6, "unit": "%"},
      {"measurement": "viability, T/C", "setting": "second compound 0.0949 µM, first compound 10 µM", "value": 61.7, "unit": "%"},
      {"measurement": "viability, T/C", "setting": "second compound 0.3 µM, first compound 0.0316 µM", "value": 63.7, "unit": "%"},
      {"measurement": "viability, T/C", "setting": "second compound 0.3 µM, first compound 0.1 µM", "value": 57.3, "unit": "%"},
      {"measurement": "viability, T/C", "setting": "second compound 0.3 µM, first compound 0.316 µM", "value": 54.7, "unit": "%"},
      {"measurement": "viability, T/C", "setting": "second compound 0.3 µM, first compound 1 µM", "value": 55, "unit": "%"},
      {"measurement": "viability, T/C", "setting": "second compound 0.3 µM, first compound 3.16 µM", "value": 52.3, "unit": "%"},
      {"measurement": "viability, T/C", "setting": "second compound 0.3 µM, first compound 10 µM", "value": 39, "unit": "%"}
    ]}
  ]
}
